The results in this text go back to ChEMBL document CHEMBL1146611, “Design and synthesis of novel pyrrolidine-containing bradykinin antagonists” (Bioorg Med Chem Lett, 2003).

One assay has as its target T1, B2 bradykinin receptor (Homo sapiens, UniProt P30411).
T1 sequence (P30411 whole entry): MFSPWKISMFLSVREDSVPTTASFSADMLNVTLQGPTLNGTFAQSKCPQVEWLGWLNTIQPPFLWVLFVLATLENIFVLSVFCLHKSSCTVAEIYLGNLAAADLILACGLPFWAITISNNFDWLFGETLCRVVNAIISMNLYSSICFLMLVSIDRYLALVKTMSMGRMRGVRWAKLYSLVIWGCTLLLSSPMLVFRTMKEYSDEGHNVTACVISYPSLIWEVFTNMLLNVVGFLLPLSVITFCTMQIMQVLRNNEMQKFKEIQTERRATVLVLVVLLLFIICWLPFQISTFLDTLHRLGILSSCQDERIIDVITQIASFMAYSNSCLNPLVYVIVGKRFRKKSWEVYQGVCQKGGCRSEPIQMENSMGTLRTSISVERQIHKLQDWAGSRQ
The assay is described as follows: In vitro binding affinity against Bradykinin receptor B2.

The target in assay [1] is T2, B2 bradykinin receptor (Homo sapiens) (UniProt P30411).
T2 sequence (whole entry): T1 sequence (P30411 whole entry)
The assay is described as follows: In vitro binding affinity against Bradykinin receptor B2 at 1 uM concentration.

The target of assay [2] is T3, B1 bradykinin receptor (Homo sapiens) (UniProt P46663).
T3 sequence (whole entry): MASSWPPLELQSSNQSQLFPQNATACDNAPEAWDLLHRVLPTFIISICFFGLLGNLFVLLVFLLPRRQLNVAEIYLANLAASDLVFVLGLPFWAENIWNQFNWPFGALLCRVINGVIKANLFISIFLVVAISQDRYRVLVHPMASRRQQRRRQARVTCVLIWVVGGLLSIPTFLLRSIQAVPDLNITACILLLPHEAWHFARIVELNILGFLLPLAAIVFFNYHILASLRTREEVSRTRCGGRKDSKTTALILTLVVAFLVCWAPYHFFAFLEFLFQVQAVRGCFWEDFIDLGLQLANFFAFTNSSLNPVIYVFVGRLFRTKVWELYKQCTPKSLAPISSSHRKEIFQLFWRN
The assay is described as follows: In vitro binding affinity against Bradykinin receptor B1 at 1 uM concentration.

At B2 bradykinin receptor, `CC(=O)Nc1ccc(/C=C/C(=O)NC[C@@H]2CCCN2c2ccc(C)c(COc3cccc4ccc(C)nc34)c2C)cn1` showed a Ki of 0.033 µM. For the same molecule, the inhibition in assay [1] came out at 84%; in assay [2], 1%.
Take `Cc1ccc2cccc(OCc3c(C)ccc(N4CCC[C@@H]4CN4C(=O)c5ccccc5C4=O)c3C)c2n1`: the inhibition in assay [1] amounted to 8%; in assay [2], 1%.
For `Cc1ccc2cccc(OCc3c(C)ccc(N4CCC[C@@H]4C(=O)O)c3C)c2n1`, in that order: 11% and 1%.
For `Cc1ccc2cccc(OCc3c(C)ccc(N4CCC[C@H]4C(=O)O)c3C)c2n1`, in that order: 19% and 6%.
For `Cc1ccc2cccc(OCc3c(C)ccc(N4CCC[C@@H]4CO)c3C)c2n1`, the inhibition in assay [1] stood at 12%; in assay [2] it was 9%.
With `Cc1ccc2cccc(OCc3c(C)ccc(N4CCC[C@H]4CO)c3C)c2n1`, the inhibition in assay [1] came to 19%; in assay [2], 1%.
Regarding `CC(=O)Nc1ccc(/C=C/C(=O)NC[C@H]2CCCN2c2ccc(C)c(COc3cccc4ccc(C)nc34)c2C)cn1`, the Ki on B2 bradykinin receptor is 0.046 µM. Also, the inhibition in assay [1] came out at 76%; in assay [2] it was 1%.
In the case of `Cc1ccc2cccc(OCc3c(C)ccc(N4CCC[C@H]4CN4C(=O)c5ccccc5C4=O)c3C)c2n1`, the values for the inhibition in assay [1] and in assay [2] were 8% and 5%, respectively.
